Results: publication PMC9395446, “First-in-human phase 1/1b study to evaluate sitravatinib in patients with advanced solid tumors” (Investigational New Drugs, 2022)
“And” between values parts separate entries of the source, which are not always exact repeats. Equal values may be shown once.

System: advanced solid tumors
Assay: Clinical activity by RECIST v1.1 (ORR, DoR, PFS, OS), phase 1b
Assay type: in vivo, human
Method: Clinical activity was assessed by objective response rate (ORR) according to Response Evaluation Criteria In Solid Tumors (RECIST) v1.1. Additional endpoints included duration of response (DoR), progression-free survival (PFS) and overall survival (OS) in phase 1b cohorts of patients based on diagnosis and tumor molecular alterations. An exploratory post-hoc analysis of patients with non-squamous NSCLC who experienced disease progression on prior checkpoint inhibitor (CPI) therapy was performed.
Disease status was evaluated according to RECIST v1.1 at baseline and every three cycles in phase 1, and every two cycles (6-week intervals) in phase 1b. Assessments were performed until objective disease progression was documented or until subsequent anti-cancer therapy started (see Supplementary Information [Sect. 1.3] for details).
DoR, PFS and OS were reported descriptively and summarized using the Kaplan–Meier method. DoR was defined as the time from first documentation of objective tumor response (complete response [CR] or partial response [PR]) until first documentation of disease progression per RECIST 1.1 or death (any cause). PFS was defined as the time from first dose of study treatment until progressive disease as defined by RECIST 1.1 or death (any cause). OS was defined as the time from first dose of study treatment until death (any cause).

[1] = NSCLC with molecular alterations (n = 53)
[2] = non-squamous NSCLC with prior CPI experience (n = 24)
[3] = phase 1b Chr4q12 amplification (n=16)
[4] = phase 1b NSCLC KIF5B-RET (n=13)
[5] = phase 1b NSCLC RET rearrangement (n=23)
[6] = phase 1b all molecular alterations (n=113)
[7] = phase 1b mITT overall (n = 161)
[8] = phase 1b overall RET rearrangement (n=31)

SMILES: COCCNCc1ccc(-c2cc3nccc(Oc4ccc(NC(=O)C5(C(=O)Nc6ccc(F)cc6)CC5)cc4F)c3s2)nc1 [sitravatinib, Sitravatinib]
- ORR (NSCLC with a molecular alteration of interest): 13.2%
- CR [1]: 0 n (%)
- DoR 6-month KM estimate (95% CI) [1]: 28.6 (4.1, 61.2) %
- DoR median (95% CI) [1]: 3.0 (1.8, 10.2) months
- NE (non-evaluable) [1]: 8 (15.1) n (%)
- ORR [1]: 7 (13.2) n (%)
- OS 12-month KM estimate (95% CI) [1]: 47.6 (32.4, 61.3) %
- OS median (95% CI) [1]: 11.6 (6.6, 18.2) months
- PD (progressive disease) [1]: 8 (15.1) n (%)
- PFS 6-month KM estimate (95% CI) [1]: 32.2 (19.2, 46.0) %
- PFS median (95% CI) [1]: 4.3 (2.9, 5.7) months
- PR [1]: 7 (13.2) n (%)
- ORR (non-squamous NSCLC with prior CPI experience (exploratory)): 4.2%
- CR [2]: 0 n (%)
- DoR 6-month KM estimate (95% CI) [2]: 100 (100, 100) %
- DoR median (95% CI) [2]: 10.2 (NE, NE) months
- NE (non-evaluable) [2]: 6 (25.0) n (%)
- ORR [2]: 1 (4.2) n (%)
- OS 12-month KM estimate (95% CI) [2]: 36.8 (16.5, 57.5) %
- OS median (95% CI) [2]: 5.2 (2.4, 33.8) months
- PD (progressive disease) [2]: 5 (20.8) n (%)
- PFS 6-month KM estimate (95% CI) [2]: 24.8 (7.8, 46.6) %
- PFS median (95% CI) [2]: 2.9 (1.5, 4.9) months
- PR [2]: 1 (4.2) n (%)
- ORR (overall phase 1b mITT population): 11.8%
- CR (phase 1b AXL alteration (n=7)): 0 n (%)
- NE (phase 1b AXL alteration (n=7)): 0 n (%)
- ORR (phase 1b AXL alteration (n=7)): 1 (14.3) n (%)
- OS 12-month KM estimate (95% CI) (phase 1b AXL alteration (n=7)): 26.8 (1.3, 67.0) %
- OS median (95% CI) (phase 1b AXL alteration (n=7)): 10.0 (2.2, NE) months
- PD (progressive disease) (phase 1b AXL alteration (n=7)): 2 (28.6) n (%)
- PFS 6-month KM estimate (95% CI) (phase 1b AXL alteration (n=7)): 71.4 (25.8, 92.0) %
- PFS median (95% CI) (phase 1b AXL alteration (n=7)): NR (1.2, NE)
- PR (phase 1b AXL alteration (n=7)): 1 (14.3) n (%)
- CR (phase 1b CBL alteration (n=31)): 0 n (%)
- DoR 6-month KM estimate (95% CI) (phase 1b CBL alteration (n=31)): 50.0 (0.6, 91.0) %
- DoR median (95% CI) (phase 1b CBL alteration (n=31)): NR (4.3, NE)
- NE (phase 1b CBL alteration (n=31)): 9 (29.0) n (%)
- ORR (phase 1b CBL alteration (n=31)): 2 (6.5) n (%)
- OS 12-month KM estimate (95% CI) (phase 1b CBL alteration (n=31)): 20.2 (7.4, 37.3) %
- OS median (95% CI) (phase 1b CBL alteration (n=31)): 5.0 (3.2, 9.9) months
- PD (progressive disease) (phase 1b CBL alteration (n=31)): 9 (29.0) n (%)
- PFS 6-month KM estimate (95% CI) (phase 1b CBL alteration (n=31)): 12.3 (3.1, 28.3) %
- PFS median (95% CI) (phase 1b CBL alteration (n=31)): 2.0 (1.3, 4.1) months
- PR (phase 1b CBL alteration (n=31)): 2 (6.5) n (%)
- CR (phase 1b CRPC (n=10)): 0 n (%)
- NE (phase 1b CRPC (n=10)): 3 (30.0) n (%)
- ORR (phase 1b CRPC (n=10)): 0 n (%)
- OS 12-month KM estimate (95% CI) (phase 1b CRPC (n=10)): 18.2 (0.8, 54.5) %
- OS median (95% CI) (phase 1b CRPC (n=10)): 10.1 (2.8, 23.2) months
- PD (progressive disease) (phase 1b CRPC (n=10)): 1 (10.0) n (%)
- PFS 6-month KM estimate (95% CI) (phase 1b CRPC (n=10)): 50.0 (11.1, 80.4) %
- PFS median (95% CI) (phase 1b CRPC (n=10)): 5.8 (2.1, NE) months
- PR (phase 1b CRPC (n=10)): 0 n (%)
- CR [3]: 0 n (%)
- NE [3]: 4 (25.0) n (%)
- ORR [3]: 0 n (%)
- OS 12-month KM estimate (95% CI) [3]: 35.2 (13.3, 58.2) %
- OS median (95% CI) [3]: 9.5 (3.6, 18.1) months
- PD (progressive disease) [3]: 3 (18.8) n (%)
- PFS 6-month KM estimate (95% CI) [3]: 23.8 (5.8, 48.5) %
- PFS median (95% CI) [3]: 2.7 (1.3, 4.4) months
- PR [3]: 0 n (%)
- CR (phase 1b MET alteration (n=17)): 0 n (%)
- DoR median (95% CI) (phase 1b MET alteration (n=17)): NR (3.0, NE)
- NE (phase 1b MET alteration (n=17)): 3 (17.6) n (%)
- ORR (phase 1b MET alteration (n=17)): 2 (11.8) n (%)
- OS 12-month KM estimate (95% CI) (phase 1b MET alteration (n=17)): 27.1 (8.4, 50.2) %
- OS median (95% CI) (phase 1b MET alteration (n=17)): 7.3 (3.5, 13.9) months
- PD (progressive disease) (phase 1b MET alteration (n=17)): 2 (11.8) n (%)
- PFS 6-month KM estimate (95% CI) (phase 1b MET alteration (n=17)): 16.4 (2.8, 40.0) %
- PFS median (95% CI) (phase 1b MET alteration (n=17)): 2.9 (1.9, 4.3) months
- PR (phase 1b MET alteration (n=17)): 2 (11.8) n (%)
- CR [4]: 0 n (%)
- DoR 6-month KM estimate (95% CI) [4]: 100.0 (100.0, 100.0) %
- DoR median (95% CI) [4]: 10.2 (NE, NE) months
- NE [4]: 3 (23.1) n (%)
- ORR [4]: 1 (7.7) n (%)
- OS 12-month KM estimate (95% CI) [4]: 79.5 (39.3, 94.5) %
- OS median (95% CI) [4]: 27.2 (10.9, 33.8) months
- PD (progressive disease) [4]: 3 (23.1) n (%)
- PFS 6-month KM estimate (95% CI) [4]: 36.4 (11.2, 62.7) %
- PFS median (95% CI) [4]: 5.7 (1.5, 13.5) months
- PR [4]: 1 (7.7) n (%)
- CR [5]: 0 n (%)
- DoR 6-month KM estimate (95% CI) [5]: 25.0 (0.9, 66.5) %
- DoR median (95% CI) [5]: 2.3 (1.8, 10.2) months
- NE [5]: 3 (13.0) n (%)
- ORR [5]: 4 (17.4) n (%)
- OS 12-month KM estimate (95% CI) [5]: 73.2 (46.6, 88.1) %
- OS median (95% CI) [5]: 27.2 (10.9, NE) months
- PD (progressive disease) [5]: 3 (13.0) n (%)
- PFS 6-month KM estimate (95% CI) [5]: 40.3 (19.5, 60.4) %
- PFS median (95% CI) [5]: 5.7 (3.0, 13.5) months
- PR [5]: 4 (17.4) n (%)
- CR (phase 1b RCC (n=38)): 0 n (%)
- DoR 6-month KM estimate (95% CI) (phase 1b RCC (n=38)): 100.0 (100.0, 100.0) %
- DoR median (95% CI) (phase 1b RCC (n=38)): 13.2 (6.8, NE) months
- NE (phase 1b RCC (n=38)): 3 (7.9) n (%)
- ORR (phase 1b RCC (n=38)): 8 (21.1) n (%)
- OS 12-month KM estimate (95% CI) (phase 1b RCC (n=38)): 60.1 (41.3, 74.6) %
- OS median (95% CI) (phase 1b RCC (n=38)): 29.3 (10.8, 33.4) months
- PD (progressive disease) (phase 1b RCC (n=38)): 4 (10.5) n (%)
- PFS 6-month KM estimate (95% CI) (phase 1b RCC (n=38)): 62.6 (43.5, 76.9) %
- PFS median (95% CI) (phase 1b RCC (n=38)): 9.5 (4.3, 11.7) months
- PR (phase 1b RCC (n=38)): 8 (21.1) n (%)
- CR [6]: 0 n (%)
- DoR 6-month KM estimate (95% CI) [6]: 53.0 (20.9, 77.3) %
- DoR median (95% CI) [6]: 7.0 (1.9, 15.2) months
- ORR [6]: 11 (9.7) n (%)
- OS 12-month KM estimate (95% CI) [6]: 36.1 (26.3, 45.9) %
- OS median (95% CI) [6]: 9.9 (7.1, 10.9) months
- PD (progressive disease) [6]: 23 (20.4) n (%)
- PFS 6-month KM estimate (95% CI) [6]: 28.5 (19.6, 38.0) %
- PFS median (95% CI) [6]: 3.6 (2.7, 4.4) months
- PR [6]: 11 (9.7) n (%)
- CR [7]: 0 n (%)
- DoR 6-month KM estimate (95% CI) [7]: 71.3% and 71.3 (44.0, 87.0) %
- DoR median (95% CI) [7]: 8.2 months and 8.2 (4.3, 16.6) months
- NE (non-evaluable) [7]: 26 (16.1) n (%)
- ORR [7]: 19 (11.8) n (%)
- OS 12-month KM estimate (95% CI) [7]: 41.3% and 41.3 (32.7, 49.6) %
- OS median (95% CI) [7]: 10.7 months and 10.7 (9.9, 11.9) months
- PD (progressive disease) [7]: 28 (17.4) n (%)
- PFS 6-month KM estimate (95% CI) [7]: 37.5% and 37.5 (29.2, 45.9) %
- PFS median (95% CI) [7]: 4.3 months and 4.3 (3.1, 5.6) months
- PR [7]: 19 (11.8) n (%)
- CR [8]: 0 n (%)
- DoR 6-month KM estimate (95% CI) [8]: 40.0 (5.2, 75.3) %
- DoR median (95% CI) [8]: 2.8 (1.8, 10.2) months
- NE [8]: 3 (9.7) n (%)
- ORR [8]: 5 (16.1) n (%)
- OS 12-month KM estimate (95% CI) [8]: 66.5 (43.3, 82.0) %
- OS median (95% CI) [8]: 18.2 (10.9, 33.8) months
- PD (progressive disease) [8]: 5 (16.1) n (%)
- PFS 6-month KM estimate (95% CI) [8]: 39.5 (21.8, 56.7) %
- PFS median (95% CI) [8]: 5.3 (3.0, 6.7) months
- PR [8]: 5 (16.1) n (%)
